Type in all cases: physicochemical
Data set [1] is described as follows: Stability test of everolimus in various mixed solvents (Reference Example 1). The conditions noted are these: 1 mg/mL everolimus in ethanol/acetone mixed solvents, 25° C., up to 24 hours; when the ratio of ethanol is increased (FIG. 2). Here is the method: (§1) It is to be noted that, in the analysis using liquid chromatography (HPLC) in the present test examples, the measurement was carried out under the following conditions. • Measurement column: Zorbax Eclipse XDB-C18, Rapid resolution HT, 100 mm×4.6 mm, 1.8 μm • Detector: ultraviolet absorption spectrophotometer (measurement wavelength: 278 nm) • Column temperature: 45° C. • Mobile phase A: 0.1% formic acid; mobile phase B: methanol/acetonitrile=50/50
The stability test of everolimus in various mixed solvents was carried out. Various mixed solvents were each added to everolimus, and the prepared solutions each containing 1 mg/mL everolimus were then stored at 25° C.
The remaining amount of everolimus immediately after initiation of the storage test, and also 1 hour, 3 hours, 6 hours and 24 hours after initiation of the storage test was measured by high performance liquid chromatography (HPLC), and the peak area ratio of everolimus at each time point was then calculated. The ratio of solvents used for each sample is shown in Table 2, and the results obtained by measuring the remaining ratio of everolimus are shown in FIG. 2.

Data set [2] in a line: Stability test of everolimus with hypromellose in an ethanol solution (Reference Example 3). The conditions noted are these: 10 mg everolimus with 150 mg hypromellose and 15 mg anhydrous lactose in 10 mL ethanol, 25° C.; immediately after the production (FIG. 4). Here is the method: as §1
The stability test of everolimus comprising a water-soluble polymeric carrier in an ethanol solution was carried out. 10 mL of ethanol was added to 150 mg of hypromellose (TC-5 E Type, manufactured by Shin-Etsu Chemical Co., Ltd.), and the obtained mixture was then stirred. To this mixture, 10 mg of everolimus was added, followed by stirring, and thereafter, 15 mg of anhydrous lactose was added to the reaction mixture, and the obtained mixture was further stirred. The thus prepared mixture was stored at 25° C.
The remaining amount of everolimus immediately after initiation of the storage test, and also 0.75 hours and 2 hours after initiation of the storage test was measured by high performance liquid chromatography (HPLC), and the peak area ratio of everolimus at each time point was then calculated.

Data set [3] is described as follows: Stability test of everolimus with hypromellose in ethanol:acetone (=9:1) (Reference Example 2). To be noted: 10 mg everolimus with 150 mg hypromellose in 10 mL ethanol:acetone (=9:1), 25° C., up to 6 hours (FIG. 3). Here is the method:
as §1
The stability test of everolimus comprising a water-soluble polymeric carrier in a mixed solution of ethanol and acetone (=9:1) was carried out. 10 mL of the mixed solution of ethanol and acetone (=9:1) was added to 150 mg of hypromellose (TC-5 E Type, manufactured by Shin-Etsu Chemical Co., Ltd.), and the obtained mixture was then stirred. To this mixture, 10 mg of everolimus was added, and the thus prepared mixture was then stored at 25° C.
The remaining amount of everolimus immediately after initiation of the storage test, and also 1 hour, 3 hours and 6 hours after initiation of the storage test was measured by high performance liquid chromatography (HPLC), and the peak area ratio of everolimus at each time point was then calculated.

Each structure is given as a SMILES string.

`CO[C@H]1C[C@@H]2CC[C@@H](C)[C@@](O)(O2)C(=O)C(=O)N2CCCC[C@H]2C(=O)O[C@H]([C@H](C)C[C@@H]2CC[C@@H](OCCO)[C@H](OC)C2)CC(=O)[C@H](C)/C=C(\C)[C@@H](O)[C@@H](OC)C(=O)[C@H](C)C[C@H](C)/C=C/C=C/C=C/1C` [everolimus, 40-O-(2-hydroxyethyl)rapamycin]: the “purity of everolimus in solution (trend in words)” value in data set [1] was “decreased”. Besides, the “remaining ratio of everolimus” value in data set [2] is “less than 96%”. Besides, the “stability of everolimus in mixture (in words)” value in data set [3] was “improved”.

The values are drawn from patent US20190231755A1, “METHOD FOR PRODUCING SOLID DISPERSION COMPRISING RAPAMYCIN DERIVATIVE” (NIPPON KAYAKU KABUSHIKI KAISHA, priority 2016, published 2019).
